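Grown in 96-well plates, cells were treated for 48 hours with each compound at five concentrations. Insufficient inhibition: endpoint recorded as highest concentration tested. Abbreviation: GI50, concentration required for 50% inhibition of growth.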 The source made the active and inactive calls. Cut-off read from the data, not from the text of the source: active = GI50 up to about 1.1 µM and inactive = higher.
Columns and labels:
Assay in all cases: NCI-60 cell line screen, 48 h
MDA-MB-435 = test system: MDA-MB-435
NCI-H522 = test system: NCI-H522
U-251 = test system: U-251
MCF7 = test system: MCF7
NCI-H23 = test system: NCI-H23
Hs-578T = test system: Hs-578T
SNB-19 = test system: SNB-19
NCI-H226 = test system: NCI-H226
HCT-116 = test system: HCT-116
UACC-62 = test system: UACC-62
OVCAR-5 = test system: OVCAR-5
OVCAR-4 = test system: OVCAR-4
T47D = test system: T47D
SW-620 = test system: SW-620
BT-549 = test system: BT-549
SF-539 = test system: SF-539
OVCAR-3 = test system: OVCAR-3
SK-MEL-2 = test system: SK-MEL-2
M14 = test system: M14
HOP-92 = test system: HOP-92

CC12NC(=C(C#N)C#N)C(C#N)=C3NC(N)=C(C#N)C(=C31)Oc1ccccc12 (stereo not given) was tested. Which GI50 (MDA-MB-435) did it give?
Its GI50 is > 30.1 µM (inactive).

What about the GI50 (NCI-H522) of the same compound?
Its GI50 is 56.2 µM (inactive).

What about the GI50 (U-251) of the same compound?
The GI50 was 18.1 µM (inactive).

What about the GI50 (MCF7) of the same compound?
The GI50 was > 35.6 µM (inactive).

And the GI50 (NCI-H23)?
Its GI50 is 6.85 µM (inactive).

What about the GI50 (Hs-578T) of the same compound?
Its GI50 is 6.46 µM (inactive).

What about the GI50 (SNB-19) of the same compound?
Its GI50 is > 40.7 µM (inactive).

And the GI50 (NCI-H226)?
Its GI50 is 43.6 µM (inactive).

And the GI50 (HCT-116)?
The GI50 was 4.53 µM (inactive).

And the GI50 (UACC-62)?
Its GI50 is 15 µM (inactive).

What about the GI50 (OVCAR-5) of the same compound?
The GI50 was 47.8 µM (inactive).

And the GI50 (OVCAR-4)?
Its GI50 is 62.1 µM (inactive).

What about the GI50 (T47D) of the same compound?
Its GI50 is > 79.1 µM (inactive).

And the GI50 (SW-620)?
Its GI50 is > 26.6 µM (inactive).

What about the GI50 (BT-549) of the same compound?
The GI50 was > 24.8 µM (inactive).

What about the GI50 (SF-539) of the same compound?
The GI50 was 4.32 µM (inactive).

And the GI50 (OVCAR-3)?
The GI50 was 4.2 µM (inactive).

And the GI50 (SK-MEL-2)?
Its GI50 is 6.7 µM (inactive).

What about the GI50 (M14) of the same compound?
Its GI50 is > 44.4 µM (inactive).

What about the GI50 (HOP-92) of the same compound?
The GI50 was > 21.5 µM (inactive).

COc1cccc(C2c3cc4c(cc3OC(NNC(N)=O)C2C)OCO4)c1O (stereo not given) was tested. Which GI50 (MDA-MB-435) did it give?
Its GI50 is 0.216 µM (active).

And the GI50 (NCI-H522)?
The GI50 was 0.871 µM (active).

And the GI50 (U-251)?
The GI50 was 1.07 µM (active).

What about the GI50 (MCF7) of the same compound?
The GI50 was 0.491 µM (active).

And the GI50 (NCI-H23)?
The GI50 was 3.17 µM (inactive).

What about the GI50 (Hs-578T) of the same compound?
Its GI50 is 0.741 µM (active).

And the GI50 (SNB-19)?
The GI50 was 9.14 µM (inactive).

What about the GI50 (NCI-H226) of the same compound?
Its GI50 is 2 µM (inactive).

What about the GI50 (HCT-116) of the same compound?
The GI50 was 0.834 µM (active).

What about the GI50 (UACC-62) of the same compound?
Its GI50 is 2.54 µM (inactive).

What about the GI50 (OVCAR-5) of the same compound?
The GI50 was 6.12 µM (inactive).

And the GI50 (OVCAR-4)?
The GI50 was 38.8 µM (inactive).

And the GI50 (T47D)?
Its GI50 is 61 µM (inactive).

And the GI50 (SW-620)?
Its GI50 is 0.569 µM (active).

What about the GI50 (BT-549) of the same compound?
The GI50 was 33 µM (inactive).

And the GI50 (SF-539)?
The GI50 was 0.766 µM (active).

And the GI50 (OVCAR-3)?
The GI50 was 0.783 µM (active).

What about the GI50 (SK-MEL-2) of the same compound?
The GI50 was 0.703 µM (active).

And the GI50 (M14)?
Its GI50 is 0.513 µM (active).

What about the GI50 (HOP-92) of the same compound?
Its GI50 is 0.269 µM (active).

What does the source list for CCCCCCOc1ccc(C(=O)N(C)O)cc1?
GI50 (MDA-MB-435): 23.4 µM (inactive); GI50 (NCI-H522): 9.86 µM (inactive); GI50 (U-251): 12.5 µM (inactive); GI50 (MCF7): 28.9 µM (inactive); GI50 (NCI-H23): 11.9 µM (inactive); GI50 (Hs-578T): 65.2 µM (inactive); GI50 (SNB-19): 24.2 µM (inactive); GI50 (NCI-H226): 13.5 µM (inactive); GI50 (HCT-116): 14.9 µM (inactive); GI50 (UACC-62): 16.1 µM (inactive); GI50 (OVCAR-5): 67.3 µM (inactive); GI50 (OVCAR-4): 31.4 µM (inactive); GI50 (T47D): 23.6 µM (inactive); GI50 (SW-620): 10.2 µM (inactive); GI50 (BT-549): 33.7 µM (inactive); GI50 (SF-539): 15 µM (inactive); GI50 (OVCAR-3): 9.68 µM (inactive); GI50 (SK-MEL-2): 32.4 µM (inactive); GI50 (M14): 12.6 µM (inactive); GI50 (HOP-92): 21.1 µM (inactive)

How did the GI50 (MDA-MB-435) turn out when CC(=O)Nc1ccc(NS(=O)(=O)c2ccc3nc(C)n(NS(=O)(=O)c4ccc(NC(C)=O)cc4)c(=O)c3c2)cc1 was run?
Its GI50 is > 100 µM (inactive).

And the GI50 (NCI-H522)?
Its GI50 is > 60.7 µM (inactive).

And the GI50 (U-251)?
The GI50 was > 100 µM (inactive).

What about the GI50 (MCF7) of the same compound?
Its GI50 is > 100 µM (inactive).

And the GI50 (NCI-H23)?
The GI50 was > 100 µM (inactive).

What about the GI50 (Hs-578T) of the same compound?
Its GI50 is > 100 µM (inactive).

What about the GI50 (SNB-19) of the same compound?
The GI50 was > 100 µM (inactive).

And the GI50 (NCI-H226)?
Its GI50 is > 100 µM (inactive).

What about the GI50 (HCT-116) of the same compound?
The GI50 was > 100 µM (inactive).

And the GI50 (UACC-62)?
The GI50 was > 100 µM (inactive).

And the GI50 (OVCAR-5)?
The GI50 was > 100 µM (inactive).

What about the GI50 (OVCAR-4) of the same compound?
The GI50 was > 100 µM (inactive).

What about the GI50 (T47D) of the same compound?
The GI50 was > 100 µM (inactive).

And the GI50 (SW-620)?
The GI50 was > 100 µM (inactive).

And the GI50 (BT-549)?
Its GI50 is > 100 µM (inactive).

What about the GI50 (SF-539) of the same compound?
The GI50 was > 100 µM (inactive).

And the GI50 (OVCAR-3)?
Its GI50 is > 100 µM (inactive).

What about the GI50 (SK-MEL-2) of the same compound?
Its GI50 is > 100 µM (inactive).

What about the GI50 (M14) of the same compound?
Its GI50 is > 100 µM (inactive).

What about the GI50 (HOP-92) of the same compound?
Its GI50 is > 100 µM (inactive).

What does the source list for C=C1C(=O)OC2C1C(OC(=O)/C(C)=C/C)CC(O)(CCl)C1C(OC(C)=O)C=C(C)C21O (stereo not given)?
GI50 (MDA-MB-435): 20.3 µM (inactive); GI50 (NCI-H522): 1.99 µM (inactive); GI50 (U-251): 20.2 µM (inactive); GI50 (MCF7): 6.56 µM (inactive); GI50 (NCI-H23): 16.6 µM (inactive); GI50 (Hs-578T): 61.9 µM (inactive); GI50 (SNB-19): > 42.9 µM (inactive); GI50 (NCI-H226): 30.3 µM (inactive); GI50 (HCT-116): 7.5 µM (inactive); GI50 (UACC-62): 14.3 µM (inactive); GI50 (OVCAR-5): 17.3 µM (inactive); GI50 (OVCAR-4): 17.2 µM (inactive); GI50 (T47D): 18 µM (inactive); GI50 (SW-620): 3.98 µM (inactive); GI50 (BT-549): 8.85 µM (inactive); GI50 (SF-539): 18.2 µM (inactive); GI50 (OVCAR-3): 8.93 µM (inactive); GI50 (SK-MEL-2): 15.9 µM (inactive); GI50 (M14): 12.6 µM (inactive); GI50 (HOP-92): 13.1 µM (inactive)

For C1CCNCC1.Oc1ncnc2[nH]cc(CN3CCCCC3)c12, which GI50 (MDA-MB-435) is on record?
Its GI50 is > 100 µM (inactive).

What about the GI50 (NCI-H522) of the same compound?
Its GI50 is 86.3 µM (inactive).

And the GI50 (U-251)?
The GI50 was > 100 µM (inactive).

What about the GI50 (MCF7) of the same compound?
Its GI50 is 28.8 µM (inactive).

What about the GI50 (NCI-H23) of the same compound?
Its GI50 is > 100 µM (inactive).

And the GI50 (Hs-578T)?
Its GI50 is > 100 µM (inactive).

And the GI50 (SNB-19)?
Its GI50 is > 100 µM (inactive).

And the GI50 (NCI-H226)?
The GI50 was > 100 µM (inactive).

And the GI50 (HCT-116)?
The GI50 was 15.7 µM (inactive).

And the GI50 (UACC-62)?
The GI50 was 83.9 µM (inactive).

And the GI50 (OVCAR-5)?
Its GI50 is > 100 µM (inactive).

What about the GI50 (OVCAR-4) of the same compound?
Its GI50 is 62.4 µM (inactive).

What about the GI50 (T47D) of the same compound?
Its GI50 is 57.9 µM (inactive).

And the GI50 (SW-620)?
Its GI50 is 38 µM (inactive).

What about the GI50 (BT-549) of the same compound?
Its GI50 is > 100 µM (inactive).

And the GI50 (SF-539)?
Its GI50 is 71.4 µM (inactive).

And the GI50 (OVCAR-3)?
Its GI50 is > 100 µM (inactive).

What about the GI50 (SK-MEL-2) of the same compound?
The GI50 was > 100 µM (inactive).

What about the GI50 (M14) of the same compound?
Its GI50 is > 100 µM (inactive).

What about the GI50 (HOP-92) of the same compound?
Its GI50 is 77.3 µM (inactive).
